Structures can show the parent of a compound that is named as a salt. Where two headings read alike, the source gives them in different places.
Legend:
[1] = tested on: squirrel monkeys; settings: cited from earlier work
[2] = tested on: food or carbohydrate craving in patients; assay: Low-dose naltrexone patient study: subjective naltrexone efficacy rating (zero to ten) on food or carbohydrate craving; type: in vivo, human; settings: obese person
[3] = tested on: patients; assay: Side effects of low-dose naltrexone therapy in patients; type: in vivo, human
From the text: These effects included tiredness, headache, nausea, impaired libido, diminished pleasure in daily activities and difficulty concentrating on complex tasks. Such problems nearly always occur after the first dose or a dosage increase. When they occur, the dose of naltrexone must either be lowered or naltrexone therapy must be discontinued if lower doses are ineffective.
Another side effect that some patients relate is a feeling of mental confusion that impairs concentration upon difficult tasks. Like a headache, this effect is unacceptable. For this reason, a patient typically is started on a very low dose—for example, and without limitation, 1 mg capsules—and the amount of each dose is then increased or decreased until an effective level is reached at which the patient experiences no side effects.
(§1) For each patient described below, the patient was given an initial dose and the dose was then tailored to the patient. The dose of naltrexone was lowered when the patient experienced side effects, including headaches, nausea and/or difficulty concentrating on complex tasks, or if naltrexone is inadequately effective at a higher dose. […] Although “final” values are provided, the study continues unless termination is indicated. The following patients, as well as additional patients are currently being studied. All patients were treated for at least two months, unless released from the study due to adverse effects that were not relieved by reducing the dosage of naltrexone.

[4] = tested on: carbohydrate craving in patients; assay: Timing of naltrexone action on carbohydrate craving in patients (onset, duration); type: in vivo, human
Description: Naltrexone is preferably administered to act at the time(s) of day when overeating or carbohydrate craving occurs. Naltrexone usually starts working about 3–4 hours after it is taken and continues to work for about six hours, but this timing varies from person to person. If a patient overeats only at supper, they might take a dose about 3–4 hours prior to that meal. If their problem is from after lunch until bedtime, they might take a dose after breakfast, after lunch, and before or after supper, all by trial and error, to find the optimal timing. Different amounts of naltrexone also may be administered at different times, depending on a patient's response to each dosage at each time. If the patient experiences carbohydrate cravings at all waking hours, the patient might take a slow-release (extended-release) or timed-release dose at bedtime that would ideally cover the next morning, or take a dose in the middle of the night if the patient awakens to urinate, as many do. The patient then might take additional doses upon arising, before lunch, mid-afternoon, and after supper or a slow-release dose upon arising. […] Finding what works for any given patient's particular pattern of overeating or carbohydrate craving is trial and error. If a patient's problem is only at dinner when they eat out, then they might take the naltrexone about 3–4 hours before the planned dinnertime only on such days.

[5] = tested on: animals; settings: cited from earlier work
[6] = tested on: food or carbohydrate craving in patients; assay: Low-dose naltrexone patient study: subjective naltrexone efficacy rating (zero to ten) on food or carbohydrate craving; type: in vivo, human; parameters: key to naltrexone efficacy rating: 0 = no benefit on craving, 10 = no food/carbohydrate craving; settings: scale zero to ten
From the text: Fifty mg naltrexone tablets (REVIA) were ground, mixed with lactose and dispensed at lower doses into capsules by a compounding chemist according to standard methods in doses indicated in the following examples.
as §1
The “rating” of naltrexone efficacy is a subjective scale of zero to ten. A value of zero means that the patient experiences no beneficial effects upon food or carbohydrate craving when taking naltrexone. A value of ten means that the patient experiences no food or carbohydrate craving after taking naltrexone, and can maintain control even when a tantalizing carbohydrate-laden treat, such as a hot buttered roll, a cookie or ice cream, is placed in front of the patient, even when the patient is hungry. For diabetics, a value of eight or greater is considered a success. In contrast, for obese, non-diabetics, a value of six or greater is considered a success because carbohydrates need to be controlled, but not as diligently controlled as with diabetics.
Of note, one patient who snacked between dinner and bedtime also had insomnia. […] Unless otherwise noted, all patients are diabetics. Patients who experienced a naltrexone efficacy rating of greater than or equal to 8 also experienced a suppression of both carbohydrate craving and any tendency to overeat, in general.

[7] = tested on: eating behavior in humans; settings: cited from earlier work
[8] = patients, varies from person to person

For `O=C1CC[C@@]2(O)[C@H]3Cc4ccc(O)c5c4[C@@]2(CCN3CC2CC2)[C@H]1O5` [naltrexone HCl, naltrexone hydrochloride], the anorexic effect ([1]; doses of 0.22 mg/kg) is given as “slight anorexic effect”, the anorexic effect ([1]; higher doses than 0.22 mg/kg) is given as “the anorexic effect was greater” and the effect on cravings ([2]; 3 mg dose) is given as “cravings were curbed”. For the same compound, the effect on appetite ([2]; dose of 2 mg) was “appetite was unaffected”, the side effects ([3]; Patient 1, even at the final dosage (1 mg three times daily), discontinued treatment) was “headaches” and the side effects ([3]; Patient 4, 8 mg twice daily adjusted to 25 mg three times daily, discontinued treatment) was “headaches”. The side effects ([3]; Patient 12, even at the final dosage (4.5 mg), discontinued treatment) was “headaches”, the side effects ([3]; Patient 15, final dose 0.25 mg twice daily) was “not at the final dose” and the side effects ([3]; Patient 15, initial dose 0.75 mg twice daily) was “decreased libido, confusion, diminished animation and excessive loss of appetite”. The side effects ([3]; obese person, 3 mg dose) was “no headache”, the side effects ([3]; obese person, dose of 2 mg) was “no headache” and the side effects ([3]; obese person, one 4 mg capsule) was “headache”. The side effects ([3]; one patient who snacked between dinner and bedtime and had insomnia) was “made them tired”, the “time covered by one small dose” value ([4]; certain patients) was “more than 24 hours” and the “time at which efficacy is apparent” value ([4]; patients, low dose of naltrexone) was “apparent by the second day of treatment”. The “time naltrexone continues to work” value [4, 8] was “about six”, the “time until naltrexone starts working after it is taken” value [4, 8] was 3 to 4 h and the “effect on body weight” value [5] was “reduces body weight in animals without evidence of drug tolerance”. The naltrexone efficacy rating ([6]; Patient 1, diabetic, 207.5 lbs, 12.5 mg twice daily tailored to 1 mg three times daily) was ≥ 8, the naltrexone efficacy rating ([6]; Patient 2, diabetic, 256 lbs, 12.5 mg/d tailored to 12.5 mg four times per day) was 7 to 8 and the naltrexone efficacy rating ([6]; Patient 3, diabetic, 252 lbs, 12.5 mg when eating out tailored to 2 mg twice daily) was ≥ 8. For the same compound, the naltrexone efficacy rating ([6]; Patient 4, non-diabetic patient, 183 lbs, 8 mg twice daily adjusted to 25 mg three times daily) was 4, the naltrexone efficacy rating ([6]; Patient 5, diabetic, 162 lbs, 8 mg after lunch, unchanged) was 10 and the naltrexone efficacy rating ([6]; Patient 6, diabetic, 204 lbs, 6 mg twice daily tailored to 1 mg twice a day) was 10. The naltrexone efficacy rating ([6]; Patient 7, polycystic ovarian syndrome, 170 lbs, 6 mg three times daily tailored to 36 mg/d) was 8 to 9, the naltrexone efficacy rating ([6]; Patient 8, diabetic, 182 lbs, 8 mg after lunch tailored to 8 mg four times daily) was 9.5 and the naltrexone efficacy rating ([6]; Patient 9, diabetic, 106 lbs, 25 mg/d tailored to 50 mg/d, low doses not tried) was < 8. For the same compound, the naltrexone efficacy rating ([6]; Patient 10, diabetic, 161 lbs, 12.5 mg three times daily adjusted to 50 mg three times daily, doses less than 12.5 mg not tried) was “zero”, the naltrexone efficacy rating ([6]; Patient 11, diabetic, 183 lbs, 8 mg/d tailored to 32 mg/d) was ≥ 8 and the naltrexone efficacy rating ([6]; Patient 12, diabetic, 114 lbs, 4 mg after lunch tailored to 4.5 mg) was “zero”. The naltrexone efficacy rating ([6]; Patient 13, diabetic, 208 lbs, 5 mg three times per day tailored to 8 mg twice per day) was 8.5, the carbohydrate craving rating ([6]; Patient 14, diabetic, 226.5 lbs, 0.1 mg nine times per day adjusted to 50 mg three times daily) was “zero” and the naltrexone efficacy rating ([6]; Patient 15, diabetic, 184.25 lbs, 0.75 mg twice daily tailored to 0.25 mg twice daily) was 10. The risk ([7]; DeZwaan et al. review) was “potential for liver damage”, the “effect on sweet cravings” value ([7]; humans, Yeomans II, 50 mg, compared to other food categories) was “sweet cravings were not reduced” and the “effect on binge eating” value ([7]; humans, one long-term study, 100 mg doses) was “binge eating was affected long-term”. For the same compound, the “effect on food intake” value ([7]; humans, single-dose studies, short-term doses of 50 mg or greater) was “affect food intake”.

— patent US6972291B2, “Method for reducing food intake” (priority 2002, dated 2005)
